Consider 39 compounds from patent US9169224B2, “Piperazinyl and piperidinyl ureas as modulators of fatty acid amide hydrolase” (Janssen Pharmaceutica NV, priority 2004, dated 2015).

Some results are limits rather than exact numbers.

As a reminder, the IC50 is the midpoint of a concentration-inhibition curve. A higher IC50 goes with a need for much substance.

Chain of FAAH (O00519 whole entry): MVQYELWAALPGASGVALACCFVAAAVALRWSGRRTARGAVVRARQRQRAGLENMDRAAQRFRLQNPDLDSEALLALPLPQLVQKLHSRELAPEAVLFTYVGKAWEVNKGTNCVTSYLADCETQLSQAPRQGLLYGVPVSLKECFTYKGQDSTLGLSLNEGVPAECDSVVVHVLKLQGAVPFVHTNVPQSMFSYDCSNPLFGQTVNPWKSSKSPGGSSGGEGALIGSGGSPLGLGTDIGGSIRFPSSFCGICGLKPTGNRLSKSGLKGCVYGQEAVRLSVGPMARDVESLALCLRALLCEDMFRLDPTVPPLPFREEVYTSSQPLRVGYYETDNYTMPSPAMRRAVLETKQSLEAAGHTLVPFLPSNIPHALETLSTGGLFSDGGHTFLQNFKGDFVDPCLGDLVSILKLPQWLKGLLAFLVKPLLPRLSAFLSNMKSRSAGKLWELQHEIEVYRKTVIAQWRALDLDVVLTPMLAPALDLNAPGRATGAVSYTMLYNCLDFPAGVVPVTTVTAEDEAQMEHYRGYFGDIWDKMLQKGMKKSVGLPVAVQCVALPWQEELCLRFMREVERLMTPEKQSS

The test has as its target FAAH (Homo sapiens (Human), UniProt O00519). Description: Assay Method 1: FAAH assay, T84 cell homogenate, 3H-anandamide hydrolysis. The settings on record: 3H-AEA tracer 200 nM, 1 h at rt. Format: biochemical. As for the experimental part:
T84 frozen pellets (contents of 1-4×15 cm culture dishes) were homogenized in 300 mL of FAAH assay buffer (125 mM Tris, 1 mM EDTA, 0.2% glycerol, 0.02% Triton X-100, 0.4 mM Hepes, pH 9). The assay mixture was prepared from 50 μL of the cell homogenate, 10 μL of the test compound, and 40 μL of anandamide [1-3H-ethanolamine] (^3H-AEA; Perkin-Elmer, 10.3 Ci/mmol), which was added last, for a final tracer concentration of 200 nM. The reaction mixture was incubated at rt for 1 hour (h). During the incubation, 96-well Multiscreen filter plates (catalog number MAFCNOB50; Millipore, Bedford, Mass., USA) were loaded with 25 μL of activated charcoal (Multiscreen column loader, catalog number MACL09625, Millipore) and washed once with 100 μL of MeOH. Also during the incubation, 96-well DYNEX MicroLite plates (catalog number NL510410) were loaded with 100 μL of MicroScint40 (catalog number 6013641, Packard Bioscience, Meriden, Conn., USA). After the 1 h incubation, 60 μL of the reaction mixture were transferred to the charcoal plates, which were then assembled on top of the DYNEX plates using Centrifuge Alignment Frames (catalog number MACF09604, Millipore). The unbound, labeled ethanolamine was centrifuged through to the bottom plate (5 min at 2000 rpm), which was preloaded with the scintillant, as described above. The plates were sealed and left at rt for 1 h before counting on a Hewlett Packard TopCount.
Consider `O=C(Nc1ccccc1)N1CCN(Cc2cccc(Br)n2)CC1` [Example 71, 4-(6-Bromo-pyridin-2-ylmethyl)-piperazine-1-carboxylic acid phenylamide], for which the midpoint of inhibition, the IC50, lay at 6000 nM.
With `O=C(Nc1ccccc1)N1CCN(Cc2cccc(S(=O)(=O)c3ccc(Cl)cc3)c2)CC1` [Example 72, 4-[3-(4-Chloro-benzenesulfonyl)-benzyl]-piperazine-1-carboxylic acid phenylamide] the figure was 110 nM; with `O=C(Nc1ccccc1)N1CCN(Cc2ccc3cc[nH]c3c2)CC1` [Example 73, 4-(1H-Indol-6-ylmethyl)-piperazine-1-carboxylic acid phenylamide], 29 nM.
Regarding `O=C(Nc1ccccc1)N1CCN(Cc2ccc(Oc3ccccc3)cc2)CC1` [Example 74, 4-(4-Phenoxy-benzyl)-piperazine-1-carboxylic acid phenylamide], the IC50 is 2000 nM.
In turn, `Cc1cccc2cc(CN3CCN(C(=O)Nc4ccccc4)CC3)c(Cl)nc12` [Example 75, 4-(2-Chloro-8-methyl-quinolin-3-ylmethyl)-piperazine-1-carboxylic acid phenylamide] had an IC50 of 24 nM.
As for `Cn1ccc2ccc(CN3CCN(C(=O)Nc4ccccc4)CC3)cc21` [Example 76, 4-(1-Methyl-1H-indol-6-ylmethyl)-piperazine-1-carboxylic acid phenylamide], the IC50 was 350 nM.
With `O=C(Nc1ccccc1)N1CCN(Cc2ccc(OCc3ccccc3)cc2)CC1` [Example 77, 4-(4-Benzyloxy-benzyl)-piperazine-1-carboxylic acid phenylamide] the figure was 32 nM; with `O=C(Nc1ccccc1)N1CCN(Cc2cccc(Oc3cc(Cl)cc(Cl)c3)c2)CC1` [Example 78, 4-[3-(3,5-Dichloro-phenoxy)-benzyl]-piperazine-1-carboxylic acid phenylamide], 5000 nM.
With `O=C(Nc1ccccc1)N1CCN(Cc2ccc3c(c2)Cc2ccccc2-3)CC1` [Example 79, 4-(9H-Fluoren-2-ylmethyl)-piperazine-1-carboxylic acid phenylamide] the figure was 8000 nM.
For `CCn1c2ccccc2c2cc(CN3CCN(C(=O)Nc4ccccc4)CC3)ccc21` [Example 80, 4-(9-Ethyl-9H-carbazol-3-ylmethyl)-piperazine-1-carboxylic acid phenylamide], the IC50 was determined as 330 nM.
Compound `O=C(Nc1ccccc1)N1CCN(Cc2ccc(/C=C/c3ccccc3)cc2)CC1` [Example 81, 4-(4-Styryl-benzyl)-piperazine-1-carboxylic acid phenylamide] registered an IC50 of 6000 nM.
With `O=C(Nc1ccccc1)N1CCN(Cc2ccc(Cl)c(C(F)(F)F)c2)CC1` [Example 82, 4-(4-Chloro-3-trifluoromethyl-benzyl)-piperazine-1-carboxylic acid phenylamide] the figure was 80 nM.
In turn, `Cc1cc(CN2CCN(C(=O)Nc3ccccc3)CC2)c(C)n1-c1cccc(C(F)(F)F)c1` [Example 83, 4-[2,5-Dimethyl-1-(3-trifluoromethyl-phenyl)-1H-pyrrol-3-ylmethyl]-piperazine-1-carboxylic acid phenylamide] showed an IC50 of 480 nM.
The same measure for `O=C(Nc1ccccc1)N1CCN(Cc2ccccc2Br)CC1` [Example 84, 4-(2-Bromo-benzyl)-piperazine-1-carboxylic acid phenylamide]: 2500 nM.
On to `O=C(Nc1cccc(F)c1)N1CCN(Cc2ccc(Br)c(Br)c2)CC1` [Example 85, 4-(3,4-Dibromo-benzyl)-piperazine-1-carboxylic acid (3-fluoro-phenyl)-amide], for which the midpoint of inhibition, the IC50, lay at 19 nM.
With `O=C(Nc1ccc(F)cc1)N1CCN(Cc2ccc(Br)c(Br)c2)CC1` [Example 86, 4-(3,4-Dibromo-benzyl)-piperazine-1-carboxylic acid (4-fluoro-phenyl)-amide] the figure was 21 nM; with `COc1cccc(NC(=O)N2CCN(Cc3ccc(Br)c(Br)c3)CC2)c1` [Example 87, 4-(3,4-Dibromo-benzyl)-piperazine-1-carboxylic acid (3-methoxy-phenyl)-amide], 48 nM; with `Cc1cccc(NC(=O)N2CCN(Cc3ccc(Br)c(Br)c3)CC2)c1` [Example 88, 4-(3,4-Dibromo-benzyl)-piperazine-1-carboxylic acid m-tolylamide], 100 nM.
In turn, `O=C(Nc1ccccc1F)N1CCN(Cc2ccc(Br)c(Br)c2)CC1` [Example 89, 4-(3,4-Dibromo-benzyl)-piperazine-1-carboxylic acid (2-fluoro-phenyl)-amide] came in with an IC50 of 22 nM.
The compound `COc1ccc(NC(=O)N2CCN(Cc3ccc(Br)c(Br)c3)CC2)cc1` [Example 90, 4-(3,4-Dibromo-benzyl)-piperazine-1-carboxylic acid (4-methoxy-phenyl)-amide] showed an IC50 of 75 nM.
The same measure for `COc1ccccc1NC(=O)N1CCN(Cc2ccc(Br)c(Br)c2)CC1` [Example 91, 4-(3,4-Dibromo-benzyl)-piperazine-1-carboxylic acid (2-methoxy-phenyl)-amide]: 130 nM; for `O=C(Nc1cccc(Cl)c1)N1CCN(Cc2ccc(Br)c(Br)c2)CC1` [Example 92, 4-(3,4-Dibromo-benzyl)-piperazine-1-carboxylic acid (3-chloro-phenyl)-amide]: 240 nM.
The same measure for `O=C(Nc1ccccc1Cl)N1CCN(Cc2ccc(Br)c(Br)c2)CC1` [Example 93, 4-(3,4-Dibromo-benzyl)-piperazine-1-carboxylic acid (2-chloro-phenyl)-amide]: 460 nM.
With `Cc1ccc(NC(=O)N2CCN(Cc3ccc(Br)c(Br)c3)CC2)cc1` [Example 94, 4-(3,4-Dibromo-benzyl)-piperazine-1-carboxylic acid p-tolylamide] the figure was 470 nM.
`O=C(Nc1ccc(Cl)cc1)N1CCN(Cc2ccc(Br)c(Br)c2)CC1` [Example 95, 4-(3,4-Dibromo-benzyl)-piperazine-1-carboxylic acid (4-chloro-phenyl)-amide] registered an IC50 of 500 nM.
With `Cc1ccccc1NC(=O)N1CCN(Cc2ccc(Br)c(Br)c2)CC1` [Example 96, 4-(3,4-Dibromo-benzyl)-piperazine-1-carboxylic acid o-tolylamide], the IC50 was > 10000 nM.
Turning to `O=C(Nc1cccc(F)c1)N1CCN(Cc2cnc3ccccc3c2)CC1` [Example 97, 4-Quinolin-3-ylmethyl-piperazine-1-carboxylic acid (3-fluoro-phenyl)-amide], it took 120 nM to reach half-maximal inhibition (IC50).
`O=C(Nc1ccccc1Cl)N1CCN(Cc2cnc3ccccc3c2)CC1` [Example 99, 4-Quinolin-3-ylmethyl-piperazine-1-carboxylic acid (2-chloro-phenyl)-amide] returned an IC50 of 1600 nM.
For `O=C(Nc1cccc(Cl)c1)N1CCN(Cc2cnc3ccccc3c2)CC1` [Example 100, 4-Quinolin-3-ylmethyl-piperazine-1-carboxylic acid (3-chloro-phenyl)-amide], the IC50 turned out to be 200 nM.
The same measure for `O=C(Nc1ccc(Cl)cc1)N1CCN(Cc2cnc3ccccc3c2)CC1` [Example 101, 4-Quinolin-3-ylmethyl-piperazine-1-carboxylic acid (4-chloro-phenyl)-amide]: 360 nM; for `COc1ccccc1NC(=O)N1CCN(Cc2cnc3ccccc3c2)CC1` [Example 102, 4-Quinolin-3-ylmethyl-piperazine-1-carboxylic acid (2-methoxy-phenyl)-amide]: 540 nM.
Take `Cc1ccccc1NC(=O)N1CCN(Cc2cnc3ccccc3c2)CC1` [Example 103, 4-Quinolin-3-ylmethyl-piperazine-1-carboxylic acid o-tolylamide]: the IC50 was 6000 nM.
The same measure for `Cc1ccc(NC(=O)N2CCN(Cc3cnc4ccccc4c3)CC2)cc1` [Example 104, 4-Quinolin-3-ylmethyl-piperazine-1-carboxylic acid p-tolylamide]: 690 nM; for `COc1ccc(NC(=O)N2CCN(Cc3cnc4ccccc4c3)CC2)cc1` [Example 108, 4-Quinolin-3-ylmethyl-piperazine-1-carboxylic acid (4-methoxy-phenyl)-amide]: 270 nM; for `Cc1cccc(NC(=O)N2CCN(Cc3cnc4ccccc4c3)CC2)c1` [Example 109, 4-Quinolin-3-ylmethyl-piperazine-1-carboxylic acid m-tolylamide]: 200 nM.
Compound `COc1cccc(NC(=O)N2CCN(Cc3cnc4ccccc4c3)CC2)c1` [Example 110, 4-Quinolin-3-ylmethyl-piperazine-1-carboxylic acid (3-methoxy-phenyl)-amide] registered an IC50 of 200 nM.
Turning to `Cc1ccc(NC(=O)N2CCC(Cc3ccccc3)CC2)cc1` [Example 113, 4-Benzyl-piperidine-1-carboxylic acid p-tolylamide], the IC50 amounted to 8000 nM.
Take `Cc1cccc(NC(=O)N2CCC(Cc3ccccc3)CC2)c1` [Example 114, 4-Benzyl-piperidine-1-carboxylic acid m-tolylamide]: the IC50 came to 2300 nM.
With `O=C(Nc1ccccc1Cl)N1CCC(Cc2ccccc2)CC1` [Example 115, 4-Benzyl-piperidine-1-carboxylic acid (2-chloro-phenyl)-amide] the figure was 4000 nM.
